From ChEMBL document CHEMBL6071189, “Exploring the 1-(4-Nitrophenyl)-3-arylprop-2-en-1-one Scaffold for the Selective Inhibition of Monoamine Oxidase B” (ACS Med Chem Lett, 2024)
pIC50: −log10 of the molar value.

Key:
[1] = target: T1, Amine oxidase [flavin-containing] A (Homo sapiens, UniProt P21397); assay: Inhibition of recombinant human MAO-A using tyramine hydrochloride as substrate preincubated for 5 mins followed by substrate addition and measured after 5 mins in presence of horse radish peroxidase by Ampliflu Red based fluorescence microplate reader
T1 sequence (P21397 whole entry): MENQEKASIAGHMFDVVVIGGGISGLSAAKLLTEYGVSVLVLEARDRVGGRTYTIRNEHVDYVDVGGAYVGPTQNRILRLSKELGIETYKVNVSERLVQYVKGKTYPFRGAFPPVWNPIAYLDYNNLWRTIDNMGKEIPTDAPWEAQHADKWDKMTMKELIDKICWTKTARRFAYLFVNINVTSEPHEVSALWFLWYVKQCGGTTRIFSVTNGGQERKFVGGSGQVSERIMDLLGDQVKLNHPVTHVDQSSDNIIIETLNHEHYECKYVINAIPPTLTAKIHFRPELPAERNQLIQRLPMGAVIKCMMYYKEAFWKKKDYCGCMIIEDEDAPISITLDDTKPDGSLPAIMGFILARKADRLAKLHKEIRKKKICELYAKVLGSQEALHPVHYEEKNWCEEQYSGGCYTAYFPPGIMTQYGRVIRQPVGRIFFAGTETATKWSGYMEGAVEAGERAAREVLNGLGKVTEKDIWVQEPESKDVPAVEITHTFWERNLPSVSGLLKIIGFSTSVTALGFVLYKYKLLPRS

Homo sapiens = organism: Homo sapiens; assay: Selectivity index, ratio of IC50 for inhibition of recombinant human MAO-A to IC50 for inhibition of recombinant human MAO-B
[2] = target: T2, Amine oxidase [flavin-containing] B (Homo sapiens, UniProt P27338); assay: Inhibition of recombinant human MAO-B using tyramine hydrochloride as substrate preincubated for 5 mins followed by substrate addition and measured after 5 mins in presence of horse radish peroxidase by Ampliflu Red based fluorescence microplate reader
T2 sequence (P27338 whole entry): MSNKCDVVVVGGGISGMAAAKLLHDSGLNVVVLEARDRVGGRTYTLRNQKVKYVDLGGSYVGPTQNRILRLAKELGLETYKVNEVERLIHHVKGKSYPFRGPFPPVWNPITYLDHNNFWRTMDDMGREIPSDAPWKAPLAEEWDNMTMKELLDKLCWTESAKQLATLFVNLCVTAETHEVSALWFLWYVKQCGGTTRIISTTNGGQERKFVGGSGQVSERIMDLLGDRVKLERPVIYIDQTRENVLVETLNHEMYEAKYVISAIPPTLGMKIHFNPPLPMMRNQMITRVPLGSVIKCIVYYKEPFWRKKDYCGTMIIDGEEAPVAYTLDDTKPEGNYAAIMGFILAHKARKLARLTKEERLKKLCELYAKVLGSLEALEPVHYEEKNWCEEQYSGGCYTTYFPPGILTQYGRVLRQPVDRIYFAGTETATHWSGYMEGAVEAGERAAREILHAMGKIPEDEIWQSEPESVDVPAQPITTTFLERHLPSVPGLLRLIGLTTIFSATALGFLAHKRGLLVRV

pIC50 [1] | Ratio IC50 (Homo sapiens) | pIC50 [2] | Structure (SMILES)
5.11 | 160 | 7.32 | O=C(/C=C/c1ccc(F)cc1)c1ccc([N+](=O)[O-])cc1
5.57 | 210 | 7.89 | Cc1ccc(/C=C/C(=O)c2ccc([N+](=O)[O-])cc2)cc1
4.57 | 290 | 7.03 | COc1ccc(/C=C/C(=O)c2ccc([N+](=O)[O-])cc2)cc1
4.89 | 620 | 7.68 | O=C(/C=C/c1ccc2ccccc2c1)c1ccc([N+](=O)[O-])cc1
4.05 | 740 | 6.92 | Cc1ccccc1/C=C/C(=O)c1ccc([N+](=O)[O-])cc1
4.23 | 27000 | 8.66 | O=C(/C=C/c1ccc(Cl)c(Cl)c1)c1ccc([N+](=O)[O-])cc1
4.28 | 5200 | 8.00 | O=C(/C=C/c1ccc(Cl)cc1)c1ccc([N+](=O)[O-])cc1
